Measured values as given in patent US10314847B2, “Scalarane sesterterpenoid, pharmaceutical composition and topoisomerase II and Hsp90 inhibitor for treating cancer, and use and preparation method thereof” (NATIONAL DONG HWA UNIVERSITY, priority 2017, dated 2019).

What was measured:
Molt 4 = test system: Molt 4
From the text: (§1) The cell lines were obtained from the American Type Culture Collection (ATCC, Manassas, Va., U.S.A.) or the Japanese Collection of Research Biosources (JCRB) Cell Bank (Japan). […] Antibodies against XIAP, NFκB (p65), GADD, CDK 4, HSF 1, ATF 6 and β-tubulin were obtained from Santa Cruz Biotechnology (Santa Cruz, Calif., U.S.A.). The Hybond ECL transfer membrane and ECL Western blotting detection kits were obtained from Amersham Life Sciences (Amersham, U.K.).
(§2) Several cancer cell lines including leukemia K562, Molt 4, and HL 60 cells, prostate cancer LNCaP cells, colon cancer DLD-1 cells and breast cancer T-47D cells were used to evaluate the antiproliferative activity (referring to Table 2).
It is known that mitochondria are critical intracellular loci of ROS production and ROS exposure can lead to the […] opening. The antioxidant, microsomal GST1, in the inner mitochondrial membrane can interact with the mitochondrial permeability transition (MPT) regulator proteins, such as ANT and/or CypD, to form a MPT pore contributing to mitochondria-mediated cell death. In addition, mitochondrial homeostasis of tumor cells is regulated by an organelle-specific Hsp90 chaperone network.

K562 = experiment: MTT assay, cytotoxic effect on K562; type: cell-based; conditions: Homo sapiens; K562, molar value in text
From the text: as §1, §2

Molt 4 cells [1] = experiment: JC-1 staining, mitochondrial membrane potential disruption; type: cell-based, human; conditions: Molt 4 cells, 0.0625, 0.125 and 0.25 μg/mL, 24 hours, dose-dependent
Procedure: (§3) Determination of Reactive Oxygen Species (ROS) Generation, Calcium Accumulation, and Matrix Metalloproteinase (MMP) Disruption:
(§4) MMP disruption, calcium accumulation and ROS generation were detected with the JC-1 cationic dye (5 μg/mL), the fluorescent calcium indicator (Fluo 3, […]) and the carboxy derivative of fluorescein (carboxy-H2DCFDA, […]), respectively. In brief, the treated cells were labeled with a specific fluorescent dye for 30 minutes. After labeling, cells were washed with PBS and resuspended in PBS at a concentration of 1×10^6 cells/mL before analysis via flow cytometry.

Hsp70 = experiment: Immunofluorescence analysis of Hsp70 localization; type: cell-based, human; conditions: Molt 4 cells, confocal microscope
Procedure: Immunofluorescence Analysis:
After treatment with the tested compound, cells were fixed with 4% paraformaldehyde in 50 mM HEPES buffer (pH 7.3) for 30 minutes, and permeabilized for 20 minutes with 0.2% Trition X-100 in PBS (pH 7.4). To prevent non-specific protein binding, cells were incubated with 5% BSA in PBS containing 0.05% Trition X-100 (T-PBS) for 1 hour at room temperature. Cells were then incubated with the primary Hsp70 antibodies (1:500) for 2 hours and further with secondary antibodies (Alexa Fluor […] goat anti-mouse IgG (H+L) (Life Technologies, Carlsbad, Calif., U.S.A.)) diluted at 1:1000 for 1 hour at room temperature. After washing with PBS, cells were observed under a FV1000 confocal laser scanning microscope (Olympus, Tokyo, Japan).
The induction of Hsp70 is the biomarker of Hsp90 with N-terminal inhibition. Aiming to understand the relation between Hsp90 function and the expression of Hsp70 and 90 clients, Molt 4 cells were treated with compound 1 (0.0625 μg/mL) for different time intervals. […] Furthermore, as shown in FIG. 5(B), Hsp90 client proteins were suppressed, including p70^S6K, NFκB, Raf-1, p-GSK3β, MEK 1 and XIAP ([…] protein), MDM 2 and Rb2 (oncoprotein), and CDK4 (cell cycle regulatory protein), HIF 1 and HSF1 (transcription factor). […]

γH2AX = experiment: Western blot of γH2AX expression in Molt 4 cells; type: cell-based, human; conditions: Molt 4 cells, 0.0625, 0.125 and 0.25 μg/mL, 24 hours
Procedure: Protein expression was analyzed with Western blotting. GAPDH was used as the loading control.
In order to confirm whether the DNA damage-induced by the marine terpenoids of the present invention involved the inhibition of Topo II activity, a cell-free DNA cleavage assay using an enzyme-mediated negatively supercoiled pHOT1 plasmid DNA was applied. […] These marine terpenoids suppressed Topo II activity, resulting in the inhibition of supercoiled DNA relaxation in a dose-dependent manner (FIG. 2(A)). […] To determine whether the apoptotic mechanism of compounds 1 to 3 affects γH2AX (as a biomarker of DNA damage) induction, Western blot analysis was employed to examine the activation of γH2AX.

Molt 4 cells [2] = experiment: Intracellular calcium accumulation (Fluo 3, flow cytometry); type: cell-based, human
Procedure: as §3, §4
Oxidative stress is manifested by ROS overexpression and cannot be balanced by the available antioxidant machinery. Compound 1 of the present invention can damage the integrity of mitochondria, which are the major production sites of the superoxide anion, […]. The induction of the intracellular formation of ROS by compound 1 was determined with a carboxyl derivative of fluorescein, carboxy-H2DCFDA dye using flow cytometric analysis. […] Furthermore, the effect of compound 1 on the release of intracellular Ca^2+, was evaluated using fluorescent calcium indicator, Fluo 3. […] Thus, the effect of compound 1 (0.0625 μg/mL) at different time intervals (0, 3, 6 and 9 hours) on the level of nuclear DNA integrity was determined. […]

Hsp90 client proteins = experiment: Western blot of Hsp90, Hsp70 and Hsp90 client proteins; type: cell-based, human; conditions: Molt 4 cells, 0.0625 μg/mL
Procedure: The induction of Hsp70 is the biomarker of Hsp90 with N-terminal inhibition. Aiming to understand the relation between Hsp90 function and the expression of Hsp70 and 90 clients, Molt 4 cells were treated with compound 1 (0.0625 μg/mL) for different time intervals. […] Furthermore, as shown in FIG. 5(B), Hsp90 client proteins were suppressed, including p70^S6K, NFκB, Raf-1, p-GSK3β, MEK 1 and XIAP ([…] protein), MDM 2 and Rb2 (oncoprotein), and CDK4 (cell cycle regulatory protein), HIF 1 and HSF1 (transcription factor). The majority of Hsps accumulate in subcellular localizations that determine whether a cell is going to die or differentiate. Furthermore, the localization of Hsp70 in response to the compound 1 treatment was identified using immunofluorescence by confocal microscope.

SMILES: CC[C@@]1(C)CCC[C@]2(C)[C@H]3C[C@@H](OC(=O)C[C@@H](C)O)[C@]4(C)[C@@H](C=O)C(C(C)=O)=CC[C@H]4[C@]3(C)CC[C@@H]12 (relative stereo) [Compound 1, 12β-(3′β-hydroxybutanoyloxy)-20,24-dimethyl-24-oxo-scalara-16-en-25-al]
- Cytotoxic effect IC50, Molt 4 (Molt 4): 0.01 µg/mL
- IC50 (K562): 2.08 nM
- Mitochondrial membrane potential (JC-1) (Molt 4 cells [1]): disruption in mitochondrial membrane potential
- Localization of Hsp70 (Hsp70): predominantly accumulated in cytosol
- Expression of γH2AX (DNA damage biomarker) (γH2AX): significantly enhanced the expression of γH2AX in a dose-dependent manner
- Increase in intracellular Ca2+ accumulation versus MFI of control (Molt 4 cells [2]; 2 hours): 1.06 folds
- Increase in intracellular Ca2+ accumulation versus MFI of control (Molt 4 cells [2]; 18 hours): 1.06 folds
- Expression of HSF 1 protein (Hsp90 client proteins): attenuated
- Hsp90 client proteins (p70S6K, NFκB, Raf-1, p-GSK3β, MEK 1, XIAP, MDM 2, Rb2, CDK4, HIF 1, HSF1) (Hsp90 client proteins): suppressed
- Expression of Hsp70 (Hsp90 client proteins; different time intervals): increased in a time-dependent manner
- Expression of Hsp90 protein (Hsp90 client proteins; different time intervals): did not notably attenuate
- Cytotoxic effect IC50, Cal-27 (Cal-27): 0.56 µg/mL
